Results from patent US9511022B2, “Suspension and cake composition containing carbostyryl derivative and silicone oil and/or silicone oil derivative” (Otsuka Pharmaceutical Co., Ltd., priority 2010, dated 2016).

Assays:
[1] = Mean particle size of aripiprazole/silicone oil suspension by laser diffraction, with and without sonication; assay type: physicochemical; settings: 20 weight % aripiprazole suspension after wet pulverization, before silicone oil addition
Procedure: (§1) Suspensions containing aripiprazole and silicone oil in the contents presented in Table 1 were prepared according to the following method. A 0.1% or 1% silicone oil emulsion prepared by diluting Dow Corning® 365, 35% Dimethicone NF Emulsion (produced by Dow Corning Corporation) in purified water was used as the silicone oil. A sodium carboxymethylcellulose/mannitol/sodium dihydrogenphosphate solution was used as a dispersion medium. The solids content of the aripiprazole was adjusted to about 10 to 20 weight %. No foaming occurred in any of the suspensions.
An aqueous suspension (200 mg aripiprazole/1.1 to 2 mL) containing aripiprazole (IM Depot) and silicone oil was prepared as follows.
Note that the aripiprazole suspension was prepared according to a wet pulverization method that uses a high-pressure homogenizer (see Japanese Patent Application No. 2007-200088 filed by Otsuka Pharmaceutical Co., Ltd.).
An aripiprazole hydrate bulk powder was suspended in a dispersion medium at 20 weight %. […]
(§2) The mean particle size of the suspension prepared as described above was measured using a SALD-3000J or SALD-3100 Laser Diffraction Particle Size Analyzer (produced by Shimadzu Corporation). […]
(§3) Separately, the suspension was sonicated for 1 min with an ultrasonic wave generator attached to the particle size analyzer, and the mean particle size of the treated suspension was measured as described above.

[2] = Mean particle size of Compound (II)/silicone oil suspension by laser diffraction, with and without sonication; assay type: physicochemical; settings: 20 weight % Compound (II) suspension after wet pulverization, before silicone oil addition
Procedure: as §1, with “containing Compound (II)” for “containing aripiprazole”, “Table 4” for “Table 1”, “of Compound (II)” for “of the aripiprazole”, “to” for “to about”
An aqueous suspension (200 mg Compound (II)/1.1 to 2 mL) containing Compound (II) and silicone oil was prepared as follows. Note that the Compound (II) suspension was prepared in the same manner as in Example 1 except that the pulverizing time using a high-pressure homogenizer was shortened.
A Compound (II) bulk powder was suspended in a dispersion medium at 20 weight %. […]
as §2, §3

Row | Mean primary particle size of the resulting suspension [1] [μm] | SMILES | Mean primary particle size of the resulting suspension [2] [μm]
1 | 2.0 | O=C1CCc2ccc(OCCCCN3CCN(c4cccc(Cl)c4Cl)CC3)cc2N1 [aripiprazole, Aripiprazole] | 
2 |  | O=c1ccc2ccc(OCCCCN3CCN(c4cccc5sccc45)CC3)cc2[nH]1 [Compound (II), 7-[4-(4-benzo[b]thiophen-4-yl-piperazin-1-yl)butoxy]-1H-quinolin-2-one] | 5.3
